The values that follow are results of earlier work, collected in US20060116331A1, “Glycosylceramide analogues” (BIOMIRA, INC., priority 2002, published 2006).

“Also recorded” adds a separate entry of the source.

In one data set the test system is Vα14 NKT cells. The conditions noted are these: for CD1d-restricted, TCR-mediated activation of Vα14 NKT cells (ability to elicit natural killer cell activity): Kawano et al. (1997); for stimulation of Vα14 NKT cells: structure-activity relationship studies.
In another data set the test system is spleen cells. The conditions noted are these: Ijima et al. (1998).

Take α-mannosylceramide [α-ManCer]: in the data set with Vα14 NKT cells, the “CD1d-restricted, TCR-mediated activation of Vα14 NKT cells (ability to elicit natural killer cell activity)” value (“CD1d-restricted, TCR-mediated activation” below) is “inactive” and the “stimulation of Vα14 NKT cells” value is listed as “failed to stimulate”. For Galα1-6Glcα1-1′Cer, in the data set with Vα14 NKT cells, the “CD1d-restricted, TCR-mediated activation” value is “active”.

Regarding α-glucosylceramide [α-GlcCer], in the data set on Vα14 NKT cells, the “CD1d-restricted, TCR-mediated activation” value was “active” and the “stimulation of Vα14 NKT cells” value is given as “readily stimulate”. Turning to Galα1-6Galα1-1′Cer, in the data set on Vα14 NKT cells, the “CD1d-restricted, TCR-mediated activation” value is on record as “active”. As to `CCCCCCCCCCCCCCC[C@@H](O)[C@H](CO[C@H]1O[C@H](CO)[C@@H](O)[C@H](O)[C@H]1O)NC(=O)CCCCCCCCCCCCC` [AGL-563], the “MLR activity (stimulation of spleen cell proliferation by pretreated DCs)” value with spleen cells was “reduced, but did not abolish, activity”. For Galβ1-3Galα1-1′Cer, the “CD1d-restricted, TCR-mediated activation” value in the data set with Vα14 NKT cells is given as “active”. For `CCCCCCCCCCCCCCCCCCCCCCCC(=O)N[C@@H](CO[C@H]1O[C@H](CO)[C@H](O)[C@H](O)[C@H]1O)[C@H](O)[C@H](O)CCCCC` [OCH], the Th1/Th2 bias result in the data set on NKT cells is listed as “induces Th2 bias”. With ceramide, in the data set on Vα14 NKT cells, the “CD1d-restricted, TCR-mediated activation” value is “inactive”.

In the case of 3,4-deoxy α-GalCer, the “CD1d-restricted, TCR-mediated activation” value with Vα14 NKT cells is “active”. With `CCCCCCCCCCCCCCC[C@@H](O)[C@H](CO[C@H]1O[C@H](CO)[C@H](O)[C@H](O)[C@H]1O)NC(=O)CCCCCCCCCCCCC` [AGL-517], in the data set with spleen cells, the “MLR activity (stimulation of spleen cell proliferation by pretreated DCs)” value is recorded as “active”. With Galα1-4Glcβ1-1′Cer, in the data set with Vα14 NKT cells, the “CD1d-restricted, TCR-mediated activation” value is “inactive”. As to Galα1-2Galα1-1′Cer, the “CD1d-restricted, TCR-mediated activation” value with Vα14 NKT cells is on record as “active”. With `CCCCCCCCCCCCCCCCCCCCCCCCCC(=O)N[C@@H](CO[C@H]1O[C@H](CO)[C@H](O)[C@H](O)[C@H]1O)[C@H](O)[C@H](O)CCCCCCCCCCCCCC` [α-GalCer, α-galactosylceramide], the Th1/Th2 bias entry in the data set with NKT cells is on record as “unbiased”. Besides, the “CD1d-restricted, TCR-mediated activation” value in the data set on Vα14 NKT cells was “active; also recorded: most active”.
